# US20130053430A1, “MODULATION OF CETP EXPRESSION” (Isis Pharmaceuticals, Inc., priority 2010, published 2013)
# Strand notation (5' to 3'): a small letter for the sugar, then the base; units joined by * are phosphorothioate-linked, units joined directly phosphodiester-linked; [ ] holds rarer units or linkages, { } end groups; capitals alone tell only the bases. e = 2'-O-(2-methoxyethyl) (MOE); [5mC] = 5-methylcytosine; d = 2'-deoxy (DNA)
# What was measured:
# [1] = test system: human CETP mRNA; assay: Dose-dependent antisense inhibition of human CETP in SW872 liposarcoma cells (Example 3); assay type: cell-based; settings: Lipofectin, ~16 hours (Example 3)
# Protocol: ISIS 17291 ([…], 6-8-6 MOE (SEQ ID NO: 115)), ISIS 17302 ([…], 6-8-6 MOE (SEQ ID NO: 116)), and ISIS 17305 ([…], 6-8-6 MOE (SEQ ID NO: 117), first disclosed in U.S. Ser. No. 11/031,827 (incorporated by reference herein), were also tested under the same conditions. Cells were plated at a density of 50,000 cells per well in a 24-well plate and transfected using Lipofectin reagent with 50 nM, 150 nM, and 300 nM concentrations of each antisense oligonucleotide. After approximately 16 hours, RNA was isolated from the cells and CETP mRNA levels were measured by quantitative real-time PCR. CETP mRNA levels were normalized to total RNA content, as measured by the house-keeping gene, GAPDH mRNA levels. Results are presented in Table 5 as percent inhibition of CETP, relative to untreated control cells.
# [2] = test system: human CETP mRNA; assay: Antisense inhibition of human CETP mRNA in SW872 liposarcoma cells (Example 1); assay type: cell-based; settings: 150 nM antisense oligonucleotide, lipofectin, ~24 hours, relative to untreated control cells
# Procedure, shortened: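 SW872 cells transfected (lipofectin) with 150 nM 5-10-5 MOE gapmer (phosphorothioate, 5-methylcytosine). After about 24 h, CETP mRNA measured by qRT-PCR, normalized to GAPDH; values are % inhibition versus untreated cells.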
# [3] = test system: human CETP mRNA; assay: Dose-dependent antisense inhibition of human CETP in SW872 liposarcoma cells (Example 2); assay type: cell-based; settings: Lipofectin, ~16 hours (Example 2)
# Protocol: Cells were plated at a density of 50,000 cells per well in a 24-well plate and transfected using Lipofectin reagent with 50 nM, 150 nM, and 300 nM concentrations of each antisense oligonucleotide. After approximately 16 hours, RNA was isolated from the cells and CETP mRNA levels were measured by quantitative real-time PCR. CETP mRNA levels were normalized to total RNA content, as measured by the house-keeping gene, GAPDH mRNA levels. Results are presented in Table 4 as percent inhibition of CETP, relative to untreated control cells.
# [4] = test system: human CETP mRNA; assay: Antisense inhibition of human CETP mRNA in primary hepatocytes from huCETP transgenic mice (Example 4); assay type: cell-based, mouse; settings: cytofectin, ~24 hours
# Procedure, shortened: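 Primary hepatocytes from human CETP transgenic mice, 17,500 cells/well, transfected by cytofectin with 100 nM or 200 nM antisense oligonucleotide. After about 24 h, CETP mRNA quantified by real-time PCR, normalised to GAPDH, as percent inhibition versus untreated cells.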
# [5] = test system: human CETP mRNA; assay: Liver CETP mRNA in huCETP transgenic mice, normal chow (Example 5); assay type: in vivo; settings: 50 mg/kg i.p. twice per week for 6 weeks, relative to PBS control
# Protocol: Male huCETP transgenic mice were maintained on a 12-hour light/dark cycle and fed ad libitum normal Purina mouse chow. Animals were acclimated for at least 7 days in the research facility before initiation of the experiment. Antisense oligonucleotides (ASOs) were prepared in buffered saline (PBS) and sterilized by filtering through a 0.2 micron filter. Oligonucleotides were dissolved in 0.9% PBS for injection.
# (§1) The mice were divided into five treatment groups. The first four groups received intraperitoneal injections of ISIS 349511, ISIS 349512, ISIS 349515, or ISIS 349517 at a dose of 50 mg/kg twice per week for 6 weeks. The fifth group received intraperitoneal injections of saline twice weekly for 6 weeks.
# Twenty four hours after the final dose, the animals were sacrificed and liver tissue was isolated. Liver RNA was isolated for real-time PCR analysis of CETP. Two primer probe sets, hCETP (forward sequence […], designated herein as SEQ ID NO: 118; reverse sequence […], designated herein as SEQ ID NO: 119; probe sequence TGCGGACCGATGCCCCTGAX, designated herein as SEQ ID NO: 120) and hCETP2_LTS00182 (forward sequence […], designated herein as SEQ ID NO: 38; reverse sequence GGCTCACGCCTTTGCTGTT, designated herein as SEQ ID NO: 39: probe sequence CGGCTCGAGGTAGTGTTTACAGCCCTCX, designated herein as SEQ ID NO: 40), were used. These primer probe sets target the CETP mRNA transcript at different regions. As presented in Table 7, treatment with antisense oligonucleotides reduced CETP mRNA expression. The primer probe sets were used individually and collectively to measure CETP mRNA expression and gave similar results in all three cases. The RNA expression levels were normalized to murine Cyclophilin, a house-keeping gene, which is constitutively expressed. Cyclophilin levels were measured using the primer probe set described in Table 2. The results are expressed as percent inhibition of CETP mRNA, relative to the PBS control.
# [6] = test system: CETP protein; assay: Plasma CETP protein by ELISA in huCETP transgenic mice (Example 5); assay type: in vivo, human; settings: normal chow, 50 mg/kg i.p. twice per week for 6 weeks, compared to PBS control
# Protocol: as §1
# Plasma levels of CETP protein were measured by ELISA (Alpco, N.H.). […] The results are expressed as percentage inhibition compared to the PBS control.
# [7] = Body and organ weights of huCETP transgenic mice (Example 5); assay type: in vivo; settings: 50 mg/kg i.p. twice per week
# Protocol: as §1
# The body weights of the mice were measured pre-dose and regularly during the treatment period. The body weights are presented in Table 10, and are expressed in grams.
# [8] = Plasma glucose in huCETP transgenic mice (Example 5); assay type: in vivo; settings: 50 mg/kg i.p. twice per week
# Protocol: as §1
# Plasma glucose values were determined using a Beckman Glucose Analyzer II (Beckman Coulter) by a glucose oxidase method (Lott, J. A. et al., Clin. Chem. 21: 1754-1760, 1975).
# [9] = Plasma cholesterol and triglyceride levels in huCETP transgenic mice (Example 5); assay type: in vivo; settings: 50 mg/kg i.p. twice per week
# Protocol: as §1
# Plasma cholesterol were extracted at weeks 3 and 6 by the method of Bligh and Dyer (Bligh, E. G. and Dyer, W. J. Can. J. Biochem. Physiol. 37: 911-917, 1959) and measured with an Olympus clinical analyzer (Hitachi Olympus AU400e, Melville, N.Y.). HDL, LDL and VLDL cholesterol were individually measured by HPLC. Triglyceride levels were measured with the use of a commercially available triglyceride kit (DCL Triglyceride Reagent; Diagnostic Chemicals Ltd.). The results are presented in Tables 13 and 14 and are expressed in mg/dL. There was a significant increase in HDL levels in mice treated with ISIS oligonucleotides.
substance,measurement,setting,value
"ISIS 17291: GACAAGTGGCTGATCTGGAT, 6-8-6 MOE; first disclosed in U.S. Ser. No. 11/031,827 (antisense; sugars from the 5' end e6 d8 e6, backbone and methylation of C not given here)",percent inhibition of CETP,[1]; 50 nM,35%
same,percent inhibition of CETP,[1]; 150 nM,0%
same,percent inhibition of CETP,[1]; 300 nM,0%
"ISIS 17302: GCTTGCCTTCTGCTACAAGC, 6-8-6 MOE; first disclosed in U.S. Ser. No. 11/031,827 (antisense; sugars from the 5' end e6 d8 e6, backbone and methylation of C not given here)",percent inhibition of CETP,[1]; 50 nM,0%
same,percent inhibition of CETP,[1]; 150 nM,41%
same,percent inhibition of CETP,[1]; 300 nM,45%
"ISIS 17305: CCAGTGGGCCTTTAGGATAG, 6-8-6 MOE; first disclosed in U.S. Ser. No. 11/031,827 (antisense; sugars from the 5' end e6 d8 e6, backbone and methylation of C not given here)",percent inhibition of CETP,[1]; 50 nM,18%
same,percent inhibition of CETP,[1]; 150 nM,44%
same,percent inhibition of CETP,[1]; 300 nM,55%
ISIS 349461: 5-10-5 MOE gapmer ATACTTGACTTGGCCAAGGA (eA*eT*eA*e[5mC]*eT*dT*dG*dA*d[5mC]*dT*dT*dG*dG*d[5mC]*d[5mC]*eA*eA*eG*eG*eA),% inhibition,[2],97%
same,percent inhibition of CETP,[3]; 50 nM,75%
same,percent inhibition of CETP,[3]; 150 nM,80%
same,percent inhibition of CETP,[3]; 300 nM,88%
same,Percent inhibition of human CETP mRNA,[4]; 100 nM,65%
same,Percent inhibition of human CETP mRNA,[4]; 200 nM,52%
ISIS 349465: 5-10-5 MOE gapmer GAGACATCAATGGACTTGGC (eG*eA*eG*eA*e[5mC]*dA*dT*d[5mC]*dA*dA*dT*dG*dG*dA*d[5mC]*eT*eT*eG*eG*e[5mC]),% inhibition,[2],87%
same,percent inhibition of CETP,[3]; 50 nM,96%
same,percent inhibition of CETP,[3]; 150 nM,87%
same,percent inhibition of CETP,[3]; 300 nM,96%
same,Percent inhibition of human CETP mRNA,[4]; 100 nM,50%
same,Percent inhibition of human CETP mRNA,[4]; 200 nM,66%
ISIS 349483: 5-10-5 MOE gapmer CTCTGAGACATTCTTGTAGA (e[5mC]*eT*e[5mC]*eT*eG*dA*dG*dA*d[5mC]*dA*dT*dT*d[5mC]*dT*dT*eG*eT*eA*eG*eA),% inhibition,[2],85%
same,percent inhibition of CETP,[3]; 50 nM,100%
same,percent inhibition of CETP,[3]; 150 nM,98%
same,percent inhibition of CETP,[3]; 300 nM,85%
same,Percent inhibition of human CETP mRNA,[4]; 100 nM,77%
same,Percent inhibition of human CETP mRNA,[4]; 200 nM,63%
ISIS 349490: 5-10-5 MOE gapmer CCTCTTGGAAGATTTCCTGG (e[5mC]*e[5mC]*eT*e[5mC]*eT*dT*dG*dG*dA*dA*dG*dA*dT*dT*dT*e[5mC]*e[5mC]*eT*eG*eG),% inhibition,[2],89%
same,percent inhibition of CETP,[3]; 50 nM,97%
same,percent inhibition of CETP,[3]; 150 nM,93%
same,percent inhibition of CETP,[3]; 300 nM,88%
same,Percent inhibition of human CETP mRNA,[4]; 100 nM,36%
same,Percent inhibition of human CETP mRNA,[4]; 200 nM,80%
ISIS 349506: 5-10-5 MOE gapmer CGCCTTTGCTGTTCATGAGG (e[5mC]*eG*e[5mC]*e[5mC]*eT*dT*dT*dG*d[5mC]*dT*dG*dT*dT*d[5mC]*dA*eT*eG*eA*eG*eG),% inhibition,[2],92%
same,percent inhibition of CETP,[3]; 50 nM,93%
same,percent inhibition of CETP,[3]; 150 nM,86%
same,percent inhibition of CETP,[3]; 300 nM,93%
same,Percent inhibition of human CETP mRNA,[4]; 100 nM,95%
same,Percent inhibition of human CETP mRNA,[4]; 200 nM,99%
ISIS 349513: 5-10-5 MOE gapmer TCCAGCTGTGAGCCTGGTGC (eT*e[5mC]*e[5mC]*eA*eG*d[5mC]*dT*dG*dT*dG*dA*dG*d[5mC]*d[5mC]*dT*eG*eG*eT*eG*e[5mC]),% inhibition,[2],83%
same,percent inhibition of CETP,[3]; 50 nM,97%
same,percent inhibition of CETP,[3]; 150 nM,100%
same,percent inhibition of CETP,[3]; 300 nM,95%
same,percent inhibition of CETP,[1]; 50 nM,87%
same,percent inhibition of CETP,[1]; 150 nM,89%
same,percent inhibition of CETP,[1]; 300 nM,91%
same,Percent inhibition of human CETP mRNA,[4]; 100 nM,73%
same,Percent inhibition of human CETP mRNA,[4]; 200 nM,92%
"ISIS 349515: 5-10-5 MOE gapmer AACTTCCACCACGCTGGAGG (sugars from the 5' end e5 d10 e5, backbone and methylation of C not given here)",% inhibition,[2],53%
same,Percent inhibition of human CETP mRNA,[4]; 100 nM,94%
same,Percent inhibition of human CETP mRNA,[4]; 200 nM,94%
same,"Percent inhibition of liver CETP mRNA expression, Combined primer probe sets",[5],57%
same,"Percent inhibition of liver CETP mRNA expression, Primer probe set hCETP",[5],63%
same,"Percent inhibition of liver CETP mRNA expression, Primer probe set hCETP2_LTS00182",[5],52%
same,Percent inhibition of plasma CETP protein levels,[6],40%
same,Body weights,[7]; Week 0,25 grams
same,Body weights,[7]; Week 1,26 grams
same,Body weights,[7]; Week 2,27 grams
same,Body weights,[7]; Week 4,28 grams
same,Body weights,[7]; week 6,28 grams
same,"Organ weights, Kidney",[7]; week 6,349.5 mg
same,"Organ weights, Liver",[7]; week 6,1.7 g
same,"Organ weights, Spleen",[7]; week 6,89.3 mg
same,Glucose levels,[8]; week 3,275 mg/dL
same,Glucose levels,[8]; week 6,237 mg/dL
same,Percentage of HDL in total cholesterol,[9]; Week 3,68%
same,Percentage of HDL in total cholesterol,[9]; week 6,75%
same,HDL,"[9]; plasma, week 3",60 mg/dL
same,LDL,"[9]; plasma, week 3",19 mg/dL
same,Total cholesterol,"[9]; plasma, week 3",89 mg/dL
same,Triglycerides,"[9]; plasma, week 3",83 mg/dL
same,HDL,"[9]; plasma, week 6",66 mg/dL
same,LDL,"[9]; plasma, week 6",18 mg/dL
same,Total cholesterol,"[9]; plasma, week 6",87 mg/dL
same,Triglycerides,"[9]; plasma, week 6",115 mg/dL
same,VLDL,"[9]; plasma, week 6",4 mg/dL
ISIS 349516: 5-10-5 MOE gapmer CATCTCCGTACTCCTAACCC (e[5mC]*eA*eT*e[5mC]*eT*d[5mC]*d[5mC]*dG*dT*dA*d[5mC]*dT*d[5mC]*d[5mC]*dT*eA*eA*e[5mC]*e[5mC]*e[5mC]),% inhibition,[2],65%
same,Percent inhibition of human CETP mRNA,[4]; 100 nM,78%
same,Percent inhibition of human CETP mRNA,[4]; 200 nM,86%
